Laboratory results: patent US10889565B2, “4-hydroxy-3-sulfonylpyridin-2(1H)-ones as APJ receptor agonists” (BRISTOL-MYERS SQUIBB COMPANY, priority 2016, dated 2021)

The molecules below were run against T1, human APJ receptor (Homo sapiens, UniProt P35414) (assay: Intracellular cAMP accumulation assay (APJ hcAMP, HTRF)). Conditions: HEK293 cells stably expressing human APJ receptor; inhibition of forskolin-mediated cAMP production; read-out: Human APJ cAMP EC50 Potency range.
T1 construct: expressed in transfected cells
T1 sequence (P35414 1-380): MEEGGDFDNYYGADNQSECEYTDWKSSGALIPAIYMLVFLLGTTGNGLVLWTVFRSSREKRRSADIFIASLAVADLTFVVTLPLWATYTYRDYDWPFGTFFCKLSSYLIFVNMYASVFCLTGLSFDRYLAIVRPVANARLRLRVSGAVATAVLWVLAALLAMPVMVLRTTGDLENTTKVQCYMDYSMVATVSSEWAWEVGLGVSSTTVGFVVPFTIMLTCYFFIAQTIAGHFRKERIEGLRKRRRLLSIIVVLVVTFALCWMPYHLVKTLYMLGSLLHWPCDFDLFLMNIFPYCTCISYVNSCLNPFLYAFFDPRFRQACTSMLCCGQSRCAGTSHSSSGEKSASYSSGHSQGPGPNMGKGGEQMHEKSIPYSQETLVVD
Type: cell-based
Method: Intracellular cAMP Accumulation Assay
HEK293 cells stably expressing human APJ receptor were used to assess the activity of compounds. Cultured cells were detached and resuspended in the cAMP Homogeneous Time-Resolved Fluorescence (HTRF) assay buffer (Cisbio cat; #62AM4PEJ). The assay was performed in 384-well assay plates (Perkin-Elmer; cat #6008289) according to assay protocol provided by the manufacturer. Serial dilutions of a compound together with assay buffer containing […] IBMX and 2 μM forskolin were added to each well containing 5,000 cells and incubated for 30 minutes at room temperature. Subsequently, cAMP D2 reagent was added in the lysis buffer followed by the EuK antibody (Cisbio; cat #62AM4PEJ) and incubated for 60 min. The fluorescence emission ratio was measured using fluorometer. The intracellular cAMP concentrations (compound-stimulated inhibition of forskolin-mediated cAMP production) were calculated by extrapolation from a standard curve using known cAMP concentrations. The EC50 values were obtained by fitting the data to a sigmoidal concentration-response curve with variable slope. The maximal achievable inhibition of forskolin-induced cAMP levels (Ymax) for each compound was expressed as relative percentage of inhibition attained using pyroglutamated apelin-13 ((Pyr1)apelin-13) peptide, which was set to 100%.
The examples disclosed below were tested in the APJ in vitro assays described above and were found having human APJ cyclic AMP (hcAMP) activity. The EC50 value of each compound is presented at the end of the example description.
The biological activity of the exemplified compounds of this invention determined by the assay described above is shown at the end of each example.

Compared with `CCCCc1[nH]c(=O)c(S(=O)(=O)c2ccccc2Br)c(O)c1-c1c(OC)cccc1OC` [Example 15, 3-((2-bromophenyl)sulfonyl)-6-butyl-5-(2,6-dimethoxy-phenyl)-4-hydroxy-pyridin-2(1H)-one], `CCCCc1[nH]c(=O)c(S(=O)(=O)c2ccc(Br)cn2)c(O)c1-c1c(OC)cccc1OC` [Example 32, 3-((5-bromopyridin-2-yl)sulfonyl)-6-butyl-5-(2,6-dimethoxyphenyl)-4-hydroxypyridin-2(1H)-one] is lower in EC50: 10 to 100 nM for the first, 0.01 to 10 nM for the second. The second is the more potent here.

`CCCCc1[nH]c(=O)c(S(=O)(=O)c2ccc(-c3ccncc3C)cn2)c(O)c1-c1c(OC)cccc1OC` [Example 34, 6-butyl-5-(2,6-dimethoxy-phenyl)-4-hydroxy-3-((3′-methyl-[3,4′-bipyridin]-6-yl)sulfonyl) pyridin-2(1H)-one] and `CCCCc1[nH]c(=O)c(S(=O)(=O)c2ccc(-c3ccccc3C)cn2)c(O)c1-c1c(OC)cccc1OC` [Example 37, 6-butyl-5-(2,6-dimethoxy-phenyl)-4-hydroxy-3-((5-(o-tolyl)pyridin-2-yl)sulfonyl) pyridin-2(1H)-one] fall in the same range of EC50: 0.01 to 10 nM for the first, 0.01 to 10 nM for the second.

`CCOCc1[nH]c(=O)c(S(=O)(=O)c2ccc(C3CC3)cc2)c(O)c1-c1c(OC)cccc1OC` [Example 11, 3-((4-cyclo-propylphenyl)sulfonyl)-5-(2,6-dimethoxy-phenyl)-6-(ethoxymethyl)-4-hydroxy-pyridin-2(1H)-one] and `CCOCc1[nH]c(=O)c(S(=O)(=O)c2ccc(-n3ccccc3=O)cc2)c(O)c1-c1c(OC)cccc1OC` [Example 26, 5-(2,6-dimethoxy-phenyl)-6-(ethoxymethyl)-4-hydroxy-3-((4-(2-oxopyridin-1(2H)-yl)phenyl)sulfonyl) pyridin-2(1H)-one] fall in the same range of EC50: 0.01 to 10 nM for the first, 0.01 to 10 nM for the second.

`CCCCc1[nH]c(=O)c(S(=O)(=O)c2ccc(-n3ccccc3=O)cc2)c(O)c1-c1c(OC)cccc1OC` [Example 22, 6-butyl-5-(2,6-dimethoxy-phenyl)-4-hydroxy-3-((4-(2-oxopyridin-1(2H)-yl)phenyl)sulfonyl) pyridin-2(1H)-one] and `CCCCc1[nH]c(=O)c(S(=O)(=O)c2ccc(-n3cc(Cl)ccc3=O)cc2)c(O)c1-c1c(OC)cccc1OC` [Example 19, 6-Butyl-3-((4-(5-chloro-2-oxopyridin-1 (2H)-yl)phenyl)sulfonyl)-5-(2,6-dimethoxyphenyl)-4-hydroxypyridin-2(1H)-one] fall in the same range of EC50: 0.01 to 10 nM for the first, 0.01 to 10 nM for the second.

`CCCCc1[nH]c(=O)c(S(=O)(=O)c2ccc(C(C)C)cn2)c(O)c1-c1c(OC)cccc1OC` [Example 50, 6-Butyl-5-(2,6-dimethoxyphenyl)-4-hydroxy-3-((5-isopropylpyridin-2-yl)sulfonyl)pyridin-2(1H)-one] and `C=C(C)c1ccc(S(=O)(=O)c2c(O)c(-c3c(OC)cccc3OC)c(CCCC)[nH]c2=O)nc1` [Example 49, 6-Butyl-5-(2,6-dimethoxyphenyl)-4-hydroxy-3-((5-(prop-1-en-2-yl)pyridin-2-yl)sulfonyl)pyridin-2(1H)-one] fall in the same range of EC50: 0.01 to 10 nM for the first, 0.01 to 10 nM for the second.

First: CCOCc1[nH]c(=O)c(S(=O)(=O)c2ccc(-n3cc(Cl)cc(Cl)c3=O)cc2)c(O)c1-c1c(OC)cccc1OC [Example 25, 3-((4-(3,5-dichloro-2-oxopyridin-1(2H)-yl)phenyl)sulfonyl)-5-(2,6-dimethoxy-phenyl)-6-(ethoxymethyl)-4-hydroxy-pyridin-2(1H)-one]
Second: CCOCc1[nH]c(=O)c(S(=O)(=O)c2ccc(-n3cc(C)ccc3=O)cc2)c(O)c1-c1c(OC)cccc1OC [Example 24, 5-(2,6-dimethoxy-phenyl)-6-(ethoxymethyl)-4-hydroxy-3-((4-(5-methyl-2-oxopyridin-1(2H)-yl)phenyl)sulfonyl) pyridin-2(1H)-one]
The EC50 of the first is higher: 10 to 100 nM for the first, 0.01 to 10 nM for the second.

`CCCCc1[nH]c(=O)c(S(=O)(=O)c2ccc(-c3ccnc(OC)c3)cn2)c(O)c1-c1c(OC)cccc1OC` [Example 44, 6-butyl-5-(2,6-dimethoxy-phenyl)-4-hydroxy-3-((2′-methoxy-[3,4′-bipyridin]-6-yl)sulfonyl) pyridin-2(1H)-one] and `CCCCc1[nH]c(=O)c(S(=O)(=O)c2ccc(-c3ccnc(F)c3C)cn2)c(O)c1-c1c(OC)cccc1OC` [Example 33, 6-butyl-5-(2,6-dimethoxy-phenyl)-3-((2′-fluoro-3′-methyl-[3,4′-bipyridin]-6-yl)sulfonyl)-4-hydroxy-pyridin-2(1H)-one] fall in the same range of EC50: 0.01 to 10 nM for the first, 0.01 to 10 nM for the second.

`COc1cccc(OC)c1-c1c(-c2ccc(F)cc2)[nH]c(=O)c(S(=O)(=O)c2ccc(-c3ccnc(F)c3C)cc2)c1O` [Example 16, 5-(2,6-dimethoxy-phenyl)-3-((4-(2-fluoro-3-methyl-pyridin-4-yl)phenyl)sulfonyl)-6-(4-fluoro-phenyl)-4-hydroxy-pyridin-2(1H)-one] and `COc1cccc(OC)c1-c1c(-c2ccc(F)cc2)[nH]c(=O)c(S(=O)(=O)c2ccc(-c3ccc(F)nc3C)cc2)c1O` [Example 17, 5-(2,6-dimethoxy-phenyl)-3-((4-(6-fluoro-2-methyl-pyridin-3-yl)phenyl)sulfonyl)-6-(4-fluoro-phenyl)-4-hydroxy-pyridin-2(1H)-one] fall in the same range of EC50: 0.01 to 10 nM for the first, 0.01 to 10 nM for the second.

First: CCCCc1[nH]c(=O)c(S(=O)(=O)c2nnc[nH]2)c(O)c1-c1c(OC)cccc1OC [Example 48, 3-((4H-1,2,4-triazol-3-yl)sulfonyl)-6-butyl-5-(2,6-dimethoxy-phenyl)-4-hydroxy-pyridin-2(1H)-one]
Second: CCCCc1[nH]c(=O)c(S(=O)(=O)c2ccc(-c3ccc(F)cc3)cn2)c(O)c1-c1c(OC)cccc1OC [Example 43, 6-butyl-5-(2,6-dimethoxy-phenyl)-3-((5-(4-fluorophenyl)pyridin-2-yl)sulfonyl)-4-hydroxypyridin-2(1H)-one]
The EC50 of the first is higher: 10 to 100 nM for the first, 0.01 to 10 nM for the second.

`CCCCc1[nH]c(=O)c(S(=O)(=O)c2ccc(-c3ccc(F)nc3C)cc2)c(O)c1-c1c(OC)cccc1OC` [Example 5, 6-butyl-5-(2,6-dimethoxy-phenyl)-3-((4-(6-fluoro-2-methyl-pyridin-3-yl)phenyl)sulfonyl)-4-hydroxy-pyridin-2(1H)-one] and `CCCCc1[nH]c(=O)c(S(=O)(=O)c2ccc(-c3ccncc3C)cc2)c(O)c1-c1c(OC)cccc1OC` [Example 3, 6-butyl-5-(2,6-dimethoxy-phenyl)-4-hydroxy-3-((4-(3-methyl-pyridin-4-yl)phenyl)sulfonyl) pyridin-2(1H)-one] fall in the same range of EC50: 0.01 to 10 nM for the first, 0.01 to 10 nM for the second.

`CCCCc1[nH]c(=O)c(S(=O)(=O)c2ccc(-n3cc(C)ccc3=O)cc2)c(O)c1-c1c(OC)cccc1OC` [Example 20, 6-butyl-5-(2,6-dimethoxy-phenyl)-4-hydroxy-3-((4-(5-methyl-2-oxopyridin-1(2H)-yl)phenyl)sulfonyl) pyridin-2(1H)-one] and `CCCCc1[nH]c(=O)c(S(=O)(=O)c2ccc(-c3cccnc3OC)cc2)c(O)c1-c1c(OC)cccc1OC` [Example 2, 6-butyl-5-(2,6-dimethoxy-phenyl)-4-hydroxy-3-((4-(2-methoxy-pyridin-3-yl)phenyl)sulfonyl) pyridin-2(1H)-one] fall in the same range of EC50: 0.01 to 10 nM for the first, 0.01 to 10 nM for the second.

`CCCCc1[nH]c(=O)c(S(=O)(=O)c2ccc(NC(=O)Nc3ccc(F)cc3)cc2)c(O)c1-c1c(OC)cccc1OC` [Example 31, 1-(4-((6-butyl-5-(2,6-dimethoxyphenyl)-4-hydroxy-2-oxo-1,2-dihydropyridin-3-yl)sulfonyl)phenyl)-3-(4-fluorophenyl)urea] showed an EC50 of 0.01 to 10 nM.
